Experimental findings from patent publication US20260028341A1, “IMIDAZOTRIAZINE DERIVATIVES AS IL-17 MODULATORS” (UCB BIOPHARMA SRL, priority 2022, published 2026) are described below.

This test deals with T1, IL-17A (Homo sapiens, UniProt Q16552).
T1 sequence (Q16552 24-155): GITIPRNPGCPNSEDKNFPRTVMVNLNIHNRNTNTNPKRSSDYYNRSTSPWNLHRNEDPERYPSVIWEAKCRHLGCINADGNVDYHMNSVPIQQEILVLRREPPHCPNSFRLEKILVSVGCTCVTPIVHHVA
Nature of the test: Inhibition of IL-17A induced IL-6 release from dermal fibroblast cell line (HDF cell line assay). Format: cell-based. The conditions noted are these: HDF cells stimulated with IL-17A (50 pM) plus TNF-α (25 pM); IL-6 release measured by HTRF. An excerpt:
Inhibition of IL-17A Induced IL-6 Release from Dermal Fibroblast Cell Line
The purpose of this assay is to test the neutralising ability to IL-17 proteins, in a human primary cell system. Stimulation of normal human dermal fibroblasts (HDF) with IL-17 alone produces only a very weak signal but in combination with certain other cytokines, such as TNFα, a synergistic effect can be seen in the production of inflammatory cytokines, i.e. IL-6.
HDFs were stimulated with IL-17A (50 pM) in combination with TNF-α (25 pM). The resultant IL-6 response was then measured using a homogenous time-resolved FRET kit from Cisbio. The kit utilises two monoclonal antibodies, one labelled with Eu-Cryptate (Donor) and the second with d2 or XL665 (Acceptor). The intensity of the signal is proportional to the concentration of IL-6 present in the sample (Ratio is calculated by 665/620×104).
The ability of a compound to inhibit IL-17 induced IL-6 release from human dermal fibroblasts is measured in this assay.
HDF cells (Sigma #106-05n) were cultured in complete media (DMEM+10% FCS+2 mM L-glutamine) and maintained in a tissue culture flask using standard techniques. Cells were harvested from the tissue culture flask on the morning of the assay using TrypLE (Invitrogen #12605036). The TrypLE was neutralised using complete medium (45 mL) and the cells were centrifuged at 300×g for 3 minutes. The cells were re-suspended in complete media (5 mL) counted and adjusted to a concentration of 3.125×10^4 cells/mL before being added to the 384 well assay plate (Corning #3701) at 40 μL per well. The cells were left for a minimum of three hours, at 37° C./5% CO2, to adhere to the plate.
Compounds were serially diluted in DMSO before receiving an aqueous dilution into a 384 well dilution plate (Greiner #781281), where […] from the titration plate was transferred to 45 μL of complete media and mixed to give a solution containing 10% DMSO.
Mixtures of TNFα and IL-17 cytokine were prepared in complete media to final concentrations of TNFα 25 pM/IL-17A 50 pM, then 30 μL of the solution was added to a 384 well reagent plate (Greiner #781281).
10 μL from the aqueous dilution plate was transferred to the reagent plate containing 30 μL of the diluted cytokines, to give a 2.5% DMSO solution. The compounds were incubated with the cytokine mixtures for 5 h at 37° C. After the incubation, 10 μL was transferred to the assay plate, to give a 0.5% DMSO solution, then incubated for 18-20 h at 37° C./5% CO2.
From the Cisbio IL-6 FRET kit (Cisbio #62IL6PEB) europium cryptate and Alexa 665 were diluted in reconstitution buffer and mixed 1:1, as per kit insert. To a white low volume 384 well plate (Greiner #784075) were added FRET reagents (10 μL), then supernatant (10 μL) was transferred from the assay plate to Greiner reagent plate. The mixture was incubated at room temperature for 3 h with gentle shaking (<400 rpm) before being read on a Synergy Neo 2 plate reader (Excitation: 330 nm; Emission: […]).
With `Cc1nonc1C(=O)N[C@H](c1cn2ncc(C3(N4C[C@@H](C(F)(F)F)NC4=O)CCN(CC(C)(F)F)CC3)nc2n1)C1CCC(F)(F)CC1` (single isomer, unassigned) [Example 14], the IC50 was 3.98 nM.
Regarding `Cc1nonc1C(=O)N[C@H](c1cn2ncc(C3(N4C[C@H](C(F)(F)F)NC4=O)CCN(CC(C)(C)F)CC3)nc2n1)C1CCC(F)(F)CC1` (single isomer, unassigned) [Example 17], the IC50 was 251 nM.
On the same count and under the same terms, the value for `Cc1nonc1C(=O)N[C@H](c1cn2ncc(C3(N4CC(C(F)(F)F)NC4=O)CC(F)(F)C3)nc2n1)C1CCC(F)(F)CC1` (single isomer, unassigned) [Example 1] was 6.31 nM; that for `Cc1nonc1C(=O)N[C@H](c1cn2ncc(C3(N4C[C@@H](C(F)(F)F)NC4=O)CCN(CC(C)(C)F)CC3)nc2n1)C1CCC(F)(F)CC1` (single isomer, unassigned) [Example 16] was 3.98 nM; that for `Cc1nonc1C(=O)N[C@H](c1cn2ncc(C3(N4C[C@@H](C(F)(F)F)NC4=O)CCOCC3)nc2n1)C1CCC(F)(F)CC1` (single isomer, unassigned) [Example 4] was 3.98 nM.
Regarding `Cc1nonc1C(=O)N[C@H](c1cn2ncc(C3(N4CC(C(F)(F)F)NC4=O)CCN(C(=O)OC(C)(C)C)CC3)nc2n1)C1CCC(F)(F)CC1` (stereo partly drawn) [Example 6, tert-Butyl 4-(6-{(S)-(4,4-difluorocyclohexyl)[(4-methyl-1,2,5-oxadiazole-3-carbonyl)-amino]methyl}imidazo[1,2-b][1,2,4]triazin-3-yl)-4-[2-oxo-4-(trifluoromethyl)-imidazolidin-1-yl]piperidine-1-carboxylate], the IC50 was 7.94 nM.
Take “N—[(S)-(4,4-Difluorocyclohexyl)(3-{3-[(4R)-2-oxo-4-(trifluoromethyl)imidazolidin-1-yl]-oxetan-3-yl}imidazo[1,2-b][1,2,4]triazin-6-yl)methyl]-4-methyl-1,2,5-oxadiazole-3-carboxamide [Example 9]”: the pIC50 turned out to be 5.0.
As for `Cc1nonc1C(=O)N[C@H](c1cn2ncc(C3(N4C[C@H](C(F)(F)F)NC4=O)CC(F)(F)C3)nc2n1)C1CCC(F)(F)CC1` (single isomer, unassigned) [Example 2], the IC50 was 1000 nM.
The same measure, in the same setting: the value for `Cc1nonc1C(=O)N[C@H](c1cn2ncc([C@@]3(N4C[C@H](C(F)(F)F)NC4=O)CCOC3)nc2n1)C1CCC(F)(F)CC1` (single isomer, unassigned) [Example 13] was 7940 nM; that for `Cc1nonc1C(=O)N[C@H](c1cn2ncc(C3(N4CC(C(F)(F)F)NC4=O)CCNCC3)nc2n1)C1CCC(F)(F)CC1` (stereo partly drawn) [Example 7, N—[(S)-(4,4-Difluorocyclohexyl)(3-{4-[2-oxo-4-(trifluoromethyl)imidazolidin-1-yl]-piperidin-4-yl}imidazo[1,2-b][1,2,4]triazin-6-yl)methyl]-4-methyl-1,2,5-oxadiazole-3-carboxamide] was 31.6 nM; that for `Cc1nonc1C(=O)N[C@H](c1cn2ncc(C3(N4C[C@H](C(F)(F)F)NC4=O)CCN(CC(C)(F)F)CC3)nc2n1)C1CCC(F)(F)CC1` (single isomer, unassigned) [Example 15] was 316 nM.
The same measure, in the same setting: the value for `Cc1nonc1C(=O)N[C@H](c1cn2ncc(C3(N4C[C@H](C(F)(F)F)NC4=O)CCN(C)CC3)nc2n1)C1CCC(F)(F)CC1` (single isomer, unassigned) [Example 19] was 200 nM.
Consider “N—[(S)-(4,4-Difluorocyclohexyl)(3-{(3R)-3-[(4S)-2-oxo-4-(trifluoromethyl)imidazolidin-1-yl]tetrahydrofuran-3-yl}imidazo[1,2-b][1,2,4]triazin-6-yl)methyl]-4-methyl-1,2,5-oxadiazole-3-carboxamide [Example 10]”, for which the pIC50 was determined as 7.2.
In the case of “N—[(S)-(4,4-Difluorocyclohexyl)(3-{(3R)-3-[(4R)-2-oxo-4-(trifluoromethyl)imidazolidin-1-yl]tetrahydrofuran-3-yl}imidazo[1,2-b][1,2,4]triazin-6-yl)methyl]-4-methyl-1,2,5-oxadiazole-3-carboxamide [Example 12]”, the pIC50 amounted to 6.2.
For the molecule “N—[(S)-(4,4-Difluorocyclohexyl)(3-{(3S)-3-f[(4S)-2-oxo-4-(trifluoromethyl)imidazolidin-1-yl]tetrahydrofuran-3-yl}imidazo[1,2-b][1,2,4]triazin-6-yl)methyl]-4-methyl-1,2,5-oxadiazole-3-carboxamide [Example 11]”, the pIC50 is 8.0.
Regarding `Cc1nonc1C(=O)N[C@H](c1cn2ncc(C3(N4C[C@@H](C(F)(F)F)NC4=O)CCN(C)CC3)nc2n1)C1CCC(F)(F)CC1` (single isomer, unassigned) [Example 18], the IC50 was 10 nM.
For “N—[(S)-(4,4-Difluorocyclohexyl)(3-{3-[(4S)-2-oxo-4-(trifluoromethyl)imidazolidin-1-yl]-oxetan-3-yl}imidazo[1,2-b][1,2,4]triazin-6-yl)methyl]-4-methyl-1,2,5-oxadiazole-3-carboxamide [Example 8]”, the pIC50 is given as 7.5.
As to `Cc1nonc1C(=O)N[C@H](c1cn2ncc(C3(N4C[C@@H](C(F)(F)F)NC4=O)CC3)nc2n1)C1CCC(F)(F)CC1` (single isomer, unassigned) [Example 3], the half-maximal inhibitory concentration (IC50) is 631 nM.
Regarding `Cc1nonc1C(=O)N[C@H](c1cn2ncc(C3(N4C[C@H](C(F)(F)F)NC4=O)CCOCC3)nc2n1)C1CCC(F)(F)CC1` (single isomer, unassigned) [Example 5], the IC50 was 2000 nM.

Broadly, the IC50 is the midpoint of a concentration-inhibition curve. As usually defined, the pIC50 is the IC50 on a negative log10 scale, so that one unit is a factor of ten.
